The record followed here is patent US10336746B1, “RAD51 inhibitors” (Cyteir Therapeutics, Inc., priority 2017, dated 2019).

Where two headings read alike, the source gives them in different places.

The subject of data set [1] is WI-38 (Normal Human Lung Fibroblast). Put plainly: Cell line screen, WI-38. Conditions: AICDA Expression Negative. Type of data set: cell-based. As to the method: The activity of the claimed compounds was measured in a variety of cell lines with different expression levels of activation induced cytidine deaminase (AICDA). The potency assay was repeated in all of the listed cell lines and the EC50 values recorded.

A short description of data set [2]: Bi-directional Caco-2 permeability. Conditions: human; for efflux ratio at 90 min: Caco-2, read-out: BA/AB Ratio; for Papp A→B at 90 min: Caco-2, apical to basolateral, read-out: AB Papp (cm/sec × 10^6); for Papp A→B at 90 min / Papp B→A at 90 min: 37 C, up to 90 minutes; for Papp B→A at 90 min: Caco-2, basolateral to apical, read-out: BA Papp (cm/sec × 10^6). Type of data set: in vitro ADME. As to the method: Bi-directional Caco-2 permeability was assayed. Caco-2 cells were seeded onto permeable polycarbonate supports and allowed to differentiate for about 3 weeks prior to being used in the assays. The cells were then exposed to the compounds from either the apical or basolateral sides and incubated at 37 C for up to 90 minutes under light agitation. Compound transport was then measured using LC/MS/MS analysis at 30, 60, and 90 minutes.
(In general: Caco-2 cells form a polarised layer with tight junctions and transporters.)

Data set [3] in a line: Human liver microsome stability. Type of data set: in vitro ADME. Conditions: human liver microsomes; for half-life / microsomal CLint: 37° C., 45 minutes; for microsomal CLint: read-out: Clearance (μg/min/mg). As to the method:
The stability of the claimed compounds was determined in the presences of human liver microsomes. The compounds were incubated with the microsomes at 37° C. for 45 minutes. Samples were analyzed using LC-MS/MS. Data analysis included half-life, clearance rate, and the percentage of hepatic blood flow (% QH) for each of the compounds in the different species.
(In general: Microsomes from liver hold many membrane-bound enzymes, among them those of drug oxidation.)

Setting [4] is: Caco-2, Caco-2, AB direction, read-out: AB Recovery %.
The mark [5] stands for this setting: Caco-2, Caco-2, BA direction, read-out: BA Recovery %.

A word on the EC50: it is the midpoint of the concentration-response curve. High values mean a less potent agent, low ones a more potent agent. A word on the half-life: it is the time in which the quantity being followed falls by half. Read a low half-life as fast loss. In data set [1], `CC(C)OC(=O)Nc1ccc(-c2cnc([C@H]3CC[C@H](NC(=O)OC(C)C)CC3)s2)c(S(=O)(=O)NC(C)(C)C)c1` [Ex. 67A, trans-isopropyl N-[3-(tert-butylsulfamoyl)-4-[2-[4-(isopropoxycarbonylamino)cyclohexyl]thiazol-5-yl]phenyl]carbamate] came in with an EC50 above 10 µM. Moreover, the recovery at 90 min in data set [2] (setting [4]) was determined as 50.7%. Moreover, in data set [2] (setting [5]), the recovery at 90 min was found to be 78.6%. Moreover, in data set [2], the efflux ratio at 90 min stood at 0.7, the Papp A→B at 90 min was found to be 10.5 ×10⁻⁶ cm/s and the Papp B→A at 90 min stood at 6.9 ×10⁻⁶ cm/s. In addition, in data set [3], the “% QH (percentage of hepatic blood flow)” value was below 20.3%, the half-life was above 5 h and the microsomal CLint was below 4.6 µL/min/mg.
With `CC(C)OC(=O)N[C@H]1CC[C@H](c2ncc(-c3ccc(NC(=O)NCc4ccccc4)cc3S(=O)(=O)NC(C)(C)C)s2)CC1` [Ex. 66A, trans-isopropyl N-[4-[5-[4-(benzylcarbamoylamino)-2-(tert-butylsulfamoyl)phenyl]thiazol-2-yl]cyclohexyl]carbamate], the EC50 in data set [1] was above 10 µM. Moreover, in data set [2] (setting [4]), the recovery at 90 min turned out to be 64.9%. Besides, the recovery at 90 min in data set [2] (setting [5]) stood at 81.2%. Moreover, in data set [2], the efflux ratio at 90 min was 1.4, the Papp A→B at 90 min came out at 2.9 ×10⁻⁶ cm/s and the Papp B→A at 90 min amounted to 3.9 ×10⁻⁶ cm/s. For the same molecule, in data set [3], the “% QH (percentage of hepatic blood flow)” value was found to be 49.6%, the half-life is 1.29 h and the microsomal CLint was 18.2 µL/min/mg.
